Consider 79 molecules from paper PMC12040169 (PLOS Biology, 2025).

The data set in a line: in vitro. Particulars: human, hela cells, % viability.
In general, viability refers to a read-out of living cells in per cent, often relative to untreated cells. Turning to `CN(C)S(=O)(=O)c1cc(C(=O)Nc2ccc(O)cc2)c(Cl)cc1Cl` [CBK266767], the viability at 28.5 h, 10 µM amounted to 95.4%.
Under `O=C(CCN1Cc2ccccc2C1=O)NCCN1CCc2ccccc21` [CBK282632] stands 97.5%.
The result for `CC(=O)C12CCCCC1CC1C3CC(C)C4(O)CC(O)CCC4(C)C3CCC12C` (stereo not shown) [CBK261479] reads 91.8%.
The result for `Cn1nc(C2CC2)cc1NS(C)(=O)=O` [CBK038148] reads 93.9%; that for `Cc1nc2ccc(C(=O)N3CCN(C4CCCCC4)C(=O)C3)cc2[nH]1` [CBK282131], 86.5%.
With `COCCNc1nc2c(c(N3CCC(C#N)CC3)n1)CCNCC2` [CBK307706], the viability at 28.5 h, 10 µM is 86.6%.
The result for `Cc1ccc(C2(O)CCN(Cc3c(C)nc4sccn34)CC2)cc1` [CBK282734] reads 85.8%; that for `c1ccc2c(c1)NC(c1ccncc1)n1nnnc1-2` (stereo not shown) [CBK288171], 82.5%.
For `CCN1CCCC2(CCN(C(=O)c3ccoc3)C2)C1` (stereo not shown) [CBK132832], the viability at 28.5 h, 10 µM is 97.7%.
The result for `O=C(O)CCNS(=O)(=O)c1ccc2[nH]c(=O)[nH]c2c1` [CBK266906] reads 91%; that for `Oc1ccc(Nc2ncnc3scc(-c4ccccc4)c23)cc1` [CBK269146C], 108%; that for `COc1ccc(/N=C2\S[C@H]3[C@H]([C@@H](O)[C@H](O)C[C@@H]3C(N)=O)N2Cc2cccs2)cc1` [CBK288943], 88.7%.
On to `COC(=O)COc1ccc(Oc2nc(N(C)C)nc(N3CCOCC3)n2)nn1` [CBK267258], for which the viability at 28.5 h, 10 µM amounted to 104%.
Under `O=c1oc2ccccc2c(O)c1Cc1c(O)c2ccccc2oc1=O` [CBK016703G] stands 74%; under `Cc1n[nH]c2c1C(c1ccc(C(=O)O)cc1)C1=C(COC1=O)N2` (stereo not shown) [CBK286546], 94.7%.
Under `O=C(NCC(O)COc1ccccc1)c1cnn2c(-c3ccccc3)ccnc12` (stereo not shown) [CBK298320] stands 99%.
`COc1ccccc1C(=O)Nc1ccccc1N1CCN(C)CC1` [CBK267938]: the viability at 28.5 h, 10 µM came to 91.8%.
With `Cc1csc(C(Cc2ccsc2)NC(=O)CCn2ccnc2)n1` (stereo not shown) [CBK285391], the viability at 28.5 h, 10 µM is 91.2%.
Under `Cc1csc(NC(=O)CSc2ccc3nnc(-c4ccccc4)n3n2)n1` [CBK287517] stands 105%; under `CC(=O)C1=C(C)NC(SCC(=O)c2ccc(F)cc2)=C(C#N)C1c1sccc1C` (stereo not shown) [CBK262624], 95.6%.
The result for `COC(=O)c1c(NC(=O)C(C)Oc2cc(C)c(Cl)c(C)c2)sc(C(C)=O)c1C` (stereo not shown) [CBK265678] reads 94.1%.
As for `Fc1ccc(-c2[nH]c3ncccc3c2CN2CCOCC2)cc1` [CBK285310], the viability at 28.5 h, 10 µM is 111%.
The result for `O=[N+]([O-])c1ccc(CN2CCN(Cc3cccnc3)CC2)cc1` [CBK263161] reads 109%; that for `O=C(Nc1ccccn1)NC1CCS(=O)(=O)C1` (stereo not shown) [CBK021330], 99.9%; that for `Cc1noc(C)c1COc1ccc(C(=O)N[C@@H]2CN(C(=O)NC(C)C)CCC[C@H]2O)cc1` [CBK289069], 93.1%.
Turning to `O=C1CC[C@@H](NCc2ccoc2)[C@H](c2cc(F)cc(F)c2)N1` [CBK282912], the viability at 28.5 h, 10 µM came to 96%.
Under `COc1ccc([C@@]23CC[C@@H](NC(=O)c4ccc(-c5csnn5)cc4)C[C@@H]2N(C)CC3)cc1OC` [CBK074256T] stands 100%; under `CCCN(CCC)C(=O)c1ccc(NC(=O)CC)cc1` [CBK304391], 91.8%.
With `COc1c(C)cnc(CNC2CCCN(Cc3noc(C)n3)C2)c1C` (stereo not shown) [CBK305350], the viability at 28.5 h, 10 µM was 92.3%.
Under `COc1cccc2sc(N(Cc3cccnc3)C(=O)c3ccc(S(=O)(=O)N(C)C)cc3)nc12` [CBK294420] stands 103%.
On to `Cn1ccnc1CNC(=O)c1cccc(OCC(=O)N2CCCCC2)c1` [CBK306635], for which the viability at 28.5 h, 10 µM was 86.8%.
The result for `Nc1ncc(-c2ccco2)nc1-c1ccc(F)c(Cl)c1` [CBK064013] reads 106%; that for `Cc1nnnn1-c1cc(NC(=O)NCC2CCCO2)ccc1F` (stereo not shown) [CBK305528], 105%; that for `Clc1ccc(SCCN2CCNCC2)cc1` [CBK266077G], 94.2%.
`CCCCSc1cc(C)nc2ncnn12` [CBK021443]: the viability at 28.5 h, 10 µM turned out to be 105%.
Under `O=c1[nH]cnc2c1cnn2[C@@H]1O[C@H](CO)[C@H](O)C1O` (stereo partly shown) [CBK201245] stands 95.8%.
For the molecule `CC(C)NC(=O)c1sc2ccccc2c1C1CN(Cc2c[nH]nc2C(C)(C)C)CCO1` (stereo not shown) [CBK285535], the viability at 28.5 h, 10 µM came to 93.5%.
Under `CCn1ncc2c1CCCC2NC1CCN(c2ccccc2F)C1=O` (stereo not shown) [CBK305279] stands 108%; under `Nc1n[nH]c(CCCc2nc(N)n[nH]2)n1` [CBK261016], 89.8%; under `Cc1ccc(S(=O)(=O)N(C)c2ccnc(N3CCN(C)CC3)n2)cc1` [CBK000671], 99.4%.
Under `CC(=O)Nc1cccc(-c2ccc(C(=O)NCc3ccc(F)cc3)c(N3CCN(C(=O)c4ccco4)CC3)n2)c1` [CBK106012] stands 85.5%; under `CCCN1C(=S)N(CCO)C(=O)/C1=C/C=C1/Oc2ccccc2N1CCC(=O)O` [CBK261400], 88.6%; under `O=C(O)CCCN1C(=O)C(O)=C(C(=O)c2ccccc2)C1c1ccccc1` (stereo not shown) [CBK262924], 93.3%.
The result for `O=C(Cn1cncn1)c1ccc2c(c1)CCO2` [CBK020087] reads 93.5%.
As for `Cc1ccc(NC(=O)c2cnc(SCc3ccccn3)n(C)c2=O)cc1` [CBK287673], the viability at 28.5 h, 10 µM came to 92.9%.
For the molecule `O=C(NCCCn1cccn1)N1CCCN(Cc2ccc(Cl)cc2)CC1` [CBK305447], the viability at 28.5 h, 10 µM stood at 116%.
Regarding `C[C@@H](Nc1nc(-c2cccc(-c3ccccc3)c2)cnc1N)c1ccccc1` [CBK063704], the viability at 28.5 h, 10 µM stood at 96.3%.
The result for `Cc1ccc(S(N)(=O)=O)cc1NC(=O)c1ccco1` [CBK004204] reads 93.7%; that for `CC(=O)Nc1nc(OCCOc2ccccc2)cnc1-c1cnn(C)c1` [CBK145425], 92.6%.
As to `COc1ccc(C(NC(=O)c2cn3ccsc3n2)[C@H]2C[C@H](O)C2)cn1` (stereo partly shown) [CBK306744], the viability at 28.5 h, 10 µM turned out to be 101%.
The result for `COc1cc(C(C)=O)ccc1OCCCN1CCC(O)(C(=O)c2cccc(C(F)(F)F)c2)CC1` [CBK024866C] reads 103%; that for `N=C1NC(=O)/C(=C/c2cccc(OCc3cccc4ccccc34)c2)S1` [CBK263610], 93.9%; that for `Cc1ccccc1CSc1cccc(F)c1` [CBK002913], 109%.
Under `Cc1cnc2[nH]c(C3CCN(C(=O)c4scnc4C)CC3)cc2c1` [CBK284753] stands 96.7%; under `CCn1c(CC2CCN(C(=O)CCN3CCCCO3)CC2)nn(C)c1=O` [CBK307217], 95.4%.
Under `O=C(NC(Cc1ccsc1)c1nccs1)C1CCOCC1` (stereo not shown) [CBK282824] stands 96.4%; under `Cn1cc(C(=O)N2CCc3ccccc32)c2ccccc21` [CBK200407], 80.6%; under `CN(C(=O)Cc1ccccc1)c1ccccc1` [CBK012581], 103%.
For `O=C(O)c1cccc(-n2cc(-c3ccc(F)cc3F)nn2)c1` [CBK112998], the viability at 28.5 h, 10 µM is 95.9%.
The result for `Cn1nc(-c2ccc(S(=O)(=O)Nc3nnn[nH]3)s2)cc1C(F)(F)F` [CBK062390] reads 94.4%.
Under `Cc1ccc(SCCC(=O)NC(CC(=O)O)C(=O)O)cc1` (stereo not shown) [CBK295174] stands 103%.
Take `CS(=O)(=O)N1CCN(C2CCN(Cc3ccccc3)CC2)CC1` [CBK263485]: the viability at 28.5 h, 10 µM was found to be 95.9%.
The result for `Cc1noc(C(C)C)c1C(=O)NC(C)c1cccc(Br)c1` (stereo not shown) [CBK296618] reads 92.8%.
The result for `Nc1nonc1-c1nc2ccccc2n1Cc1cc2c(cc1Br)OCO2` [CBK267961] reads 105%.
Under `O=C(O)c1ccc2c(c1)C(=O)N(c1nc(-c3cccnc3)n[nH]1)C2=O` [CBK268284] stands 100%; under `CC(=O)c1ccc(NC(=O)N(C)c2c(C)nc3ccc(C(=O)N4CCN(C(=O)c5ccco5)CC4)cn23)cc1` [CBK146930], 92.8%.
On to `COc1ccc(C(C)C)cc1-c1cncc(NCC(C)(C)CO)n1` [CBK065206], for which the viability at 28.5 h, 10 µM was 106%.
The result for `O=S(=O)(c1ccc(Oc2ccc(S(=O)(=O)N3CCCCCC3)cc2)cc1)N1CCCCCC1` [CBK261729] reads 99%.
Under `Cc1c(S(=O)(=O)Nc2ccc3nsnc3c2)cnn1-c1ccccc1` [CBK062229] stands 87.6%; under `CCOc1ccc(CNc2ccc(CNc3ncn[nH]3)cc2)cc1` [CBK267617], 91.7%; under `COc1ccc2cc(C)c3n[nH]c(=O)n3c2c1` [CBK283765], 89%.
The result for `CN1CCC(N2CCN(C(=O)c3ccc4nc[nH]c4c3)CC2)CC1` [CBK149099] reads 94.7%; that for `Cc1ccccc1-n1c(Cc2ccccc2)nc2c(cnn2-c2ccccc2)c1=O` [CBK262310], 91.6%.
Regarding `CC(=O)c1cc(C(=O)Nc2ccc(Oc3ccc4c(c3)OCO4)cc2)cs1` [CBK286327], the viability at 28.5 h, 10 µM was determined as 92.5%.
For the molecule `CCNC(=O)N[C@H]1CO[C@H]2[C@@H]1OC[C@@H]2n1nnnc1Oc1ccccc1` [CBK289484], the viability at 28.5 h, 10 µM is 102%.
Under `O=C(Nc1ccc(-c2ccc(F)cc2)cc1)c1ccc(N2C(=O)CCC2=O)cc1` [CBK285683] stands 98%; under `CCn1c(C)nnc1SCCNc1cc(C(C)C)nc2ccnn12` [CBK306829], 81.4%; under `N#C/C(=C/c1ccc(OCc2cccc(C(=O)O)c2)cc1)c1ccc([N+](=O)[O-])cc1` [CBK266626], 89.6%.
The result for `CCCC(=O)c1ccc(S(=O)(=O)N2CCN(Cc3ccc(C(C)=O)cc3)CC2)cc1` [CBK063159] reads 107%.
